Laboratory results from patent US9302085B2, “Methods and compositions for facilitating arterial access” (The Regents of the University of California, priority 2009, dated 2016).
“Also recorded” adds a separate entry of the source.

System: radial artery
Test: Radial artery diameter measured with ultrasound after topical application to the wrist
Assay type: in vivo, human
Conditions: for effect on the vasodilatory action of nitroglycerin: adjacent skin sites
Experimental: A dose escalation study of topical nitroglycerin was performed. Twenty healthy volunteers were selected based on the following inclusion criteria: willing and able to give written informed consent and comply with study requirements; and able to speak English. In addition, the subjects were selected based on the following exclusion criteria: presence or history of liver, cardiovascular, rheumatologic, cancer or renal disease; current treatment with any vasodilator therapy; systolic blood pressure of less than 90 mmHg; history of radial artery catheterization within the previous year; absence of radial artery blood flow in one or both arms; pregnancy; and active infection.
Each of the twenty selected subjects received either 15 mg or 30 mg of nitroglycerin (Nitro-Bid 2% ointment, 1 or 2 inches, E Fougera & Co, NY) applied to one wrist and a placebo (sorbolene cream) applied to the other wrist. Applications were performed as single-blind (subject) experiments. Radial artery diameter was measured with ultrasound before application of the topical compositions and at time intervals after application of the topical compositions. The subjects were tested again at a later date, where they received the alternate dose of nitroglycerin on one wrist and the placebo on the other wrist.
The same subjects received topical applications of nitroglycerin (30 mg) with either 20 mg or 40 mg of lidocaine topical cream (LMX 4%, Ferndale, Mich.). The nitroglycerin and lidocaine were applied at adjacent skin sites on the wrist.

SMILES | effect on the vasodilatory action of nitroglycerin (20 mg lidocaine topical cream with 30 mg nitroglycerin, FIG. 2) | effect on the vasodilatory action of nitroglycerin (40 mg lidocaine topical cream with 30 mg nitroglycerin, FIG. 3) | effect on arterial diameter (lidocaine alone, topical, FIG. 3) | increase in radial artery diameter compared to the placebo (15 mg nitroglycerin topical on one wrist, healthy volunteers, FIG. 1) | increase in radial artery diameter (30 mg nitroglycerin topical on one wrist, healthy volunteers, FIG. 1) | duration of the increase in radial artery diameter (30 mg nitroglycerin topical, 2-hour application) | vasodilation (radial artery diameter versus time) (30 mg nitroglycerin topical, FIG. 1) | diameter of the radial artery in the contralateral wrist (topical nitroglycerin on the other wrist)
CCN(CC)CC(=O)Nc1c(C)cccc1C [lidocaine] | no detectable effect | did not prevent the vasodilation; also recorded: no detectable effect | no appreciable effect | – | – | – | – | –
O=[N+]([O-])OCC(CO[N+](=O)[O-])O[N+](=O)[O-] [nitroglycerin] | – | – | – | did not significantly increase | approximately 25% | maintained during the 2-hour application | significant vasodilation | did not affect
